Measured values from patent US9440926B2, “Antiviral compounds and methods” (Biotron Limited, priority 2005, dated 2016).

Columns and labels:
Format in all cases: cell-based
HCV p7 = target: T1, HCV p7 (Hepatitis C virus genotype 1a, UniProt P27958); assay: Bacterial bioassay, HCV p7; parameters: scale not given here; settings: mean bacterial bioassay score; p7 of HCV
T1 construct: expressed in transfected cells
From the text: (§1) The bacterial bioassay method used in the present example to test the anti-viral activity of the compounds against different viral targets was described in detail in PCT/2004/000866, incorporated in its entirety herein by reference. Vpu, p7 and M referred to in the table are small membrane proteins encoded by HIV, HCV and Dengue viruses, respectively, which have functional activities supporting viral growth and/or replication.

Vpu = target: T2, Vpu (Human immunodeficiency virus type 1 group M subtype B, UniProt P05919); assay: Bacterial bioassay, Vpu; settings: mean bacterial bioassay score; Vpu of HIV
T2 construct: expressed in transfected cells
From the text: as §1

Den M = target: T3, Den M (Dengue virus type 1, UniProt P33478); assay: Bacterial bioassay, Den M; parameters: scale not given here; settings: mean bacterial bioassay score; M protein of Dengue virus
T3 construct: expressed in transfected cells
From the text: as §1

T3 sequence (P33478 206-280): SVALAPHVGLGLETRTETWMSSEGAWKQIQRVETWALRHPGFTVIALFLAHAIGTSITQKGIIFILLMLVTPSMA
T1 sequence (P27958 747-809): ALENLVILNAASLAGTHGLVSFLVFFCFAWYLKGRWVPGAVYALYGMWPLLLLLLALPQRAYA
T2 sequence (P05919 whole entry): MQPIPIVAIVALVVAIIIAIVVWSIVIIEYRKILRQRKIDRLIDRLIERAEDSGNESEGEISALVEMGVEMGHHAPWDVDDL

N=C(N)NC(=O)C=Cc1cc(Br)ccc1F [BIT124, 5-bromo-2-fluorocinnamoylguanidine, reference compound]
Average Bacterial Assay Score, HCV p7 (HCV p7): 2.25

N=C(N)NC(=O)C=Cc1cccc(Br)c1 [BIT067, (3-Bromocinnamoyl)guanidine, reference compound]
Average Bacterial Assay Score, Vpu (Vpu): 2.88

CC(=O)O.Cn1cc(-c2ccc3cc(C(=O)NC(=N)N)ccc3c2)cn1 [BIT314, (6-(1-methylpryazol-4-yl)-2-napthoyl)guanidinium acetate]
Average Bacterial Assay Score, HCV p7 (HCV p7): 3.30
Average Bacterial Assay Score, Den M (Den M): 1.60
Average Bacterial Assay Score, Vpu (Vpu): 0.00

COc1ccc(-c2cccc3cc(C(=O)NC(=N)N)ccc23)c(OC)n1 [BIT315, (5-(2,6-dimethoxypyridin-3-yl)-2-napthoyl)guanidine]
Average Bacterial Assay Score, HCV p7 (HCV p7): 0.30
Average Bacterial Assay Score, Den M (Den M): 1.00
Average Bacterial Assay Score, Vpu (Vpu): 0.20

N=C(N)NC(=O)c1ccc2c(-c3ccccc3Cl)cccc2c1 [BIT316, (5-(2-chlorophenyl)-2-napthoyl)guanidine]
Average Bacterial Assay Score, HCV p7 (HCV p7): 0.80
Average Bacterial Assay Score, Den M (Den M): 0.50
Average Bacterial Assay Score, Vpu (Vpu): 0.20

CS(=O)(=O)Nc1ccc(-c2cccc3cc(C(=O)NC(=N)N)ccc23)cc1 [BIT319, (5-(4-((methylsulphonyl)amino)phenyl)-2-napthoyl)guanidine]
Average Bacterial Assay Score, HCV p7 (HCV p7): 0.00
Average Bacterial Assay Score, Den M (Den M): 0.15
Average Bacterial Assay Score, Vpu (Vpu): 0.00

N=C(N)NC(=O)C=CC=Cc1ccccc1Br [BIT128, 5-(2′-bromophenyl)penta-2,4-dienoylguanidine, reference compound]
Average Bacterial Assay Score, Den M (Den M): 2.87

CC(=O)Nc1ccc(-c2cccc3cc(C(=O)NC(=N)N)ccc23)cc1 [BIT317, (5-(4-(acetylamino)phenyl)-2-napthoyl)guanidine]
Average Bacterial Assay Score, HCV p7 (HCV p7): 0.20
Average Bacterial Assay Score, Den M (Den M): 0.40
Average Bacterial Assay Score, Vpu (Vpu): 0.00

CC(=O)Nc1cccc(-c2cccc3cc(C(=O)NC(=N)N)ccc23)c1 [BIT318, (5-(3-(acetylamino)phenyl)-2-napthoyl)guanidine]
Average Bacterial Assay Score, HCV p7 (HCV p7): 0.30
Average Bacterial Assay Score, Den M (Den M): 0.35
Average Bacterial Assay Score, Vpu (Vpu): 2.00

N=C(N)NC(=O)C=Cc1ccc(Cl)c(Cl)c1 [BIT300, 3,4-dichlorocinnamoyl guanidine]
Average Bacterial Assay Score, HCV p7 (HCV p7): 0.67
Average Bacterial Assay Score, Den M (Den M): 3.40
Average Bacterial Assay Score, Vpu (Vpu): 1.52
